According to PubChem BioAssay (NCI):
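1) Cells in 96-well plates. 2) Compound, 48 h, 5 concentrations. 3) Linear interpolation between surrounding doses. 4) Unreached endpoint = highest concentration. At the TGI there is no net growth.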

Columns and labels:
Experiment in all cases: NCI tumour cell line growth inhibition, 48 h
KM12 colon = test system: KM12 colon
NCI-H522 lung = test system: NCI-H522 lung
SN12C renal = test system: SN12C renal
MDA-MB-231 breast = test system: MDA-MB-231 breast
SK-MEL-28 melanoma = test system: SK-MEL-28 melanoma
A549 NSCLC = test system: A549 NSCLC
HT29 colon = test system: HT29 colon
DU-145 prostate = test system: DU-145 prostate
SW-620 colon = test system: SW-620 colon
COLO 205 colon = test system: COLO 205 colon
BT-549 breast = test system: BT-549 breast
U251 CNS = test system: U251 CNS
PC-3 prostate = test system: PC-3 prostate
CAKI-1 renal = test system: CAKI-1 renal
SK-MEL-2 melanoma = test system: SK-MEL-2 melanoma
CCRF-CEM leukemia = test system: CCRF-CEM leukemia
MALME-3M melanoma = test system: MALME-3M melanoma
IGROV1 ovarian = test system: IGROV1 ovarian
NCI-H23 lung = test system: NCI-H23 lung
SK-MEL-5 melanoma = test system: SK-MEL-5 melanoma
MDA-N = test system: MDA-N
RPMI-8226 leukemia = test system: RPMI-8226 leukemia
M14 melanoma = test system: M14 melanoma
MDA-MB-435 = test system: MDA-MB-435
SF-268 CNS = test system: SF-268 CNS
UACC-62 melanoma = test system: UACC-62 melanoma
SR leukemia = test system: SR leukemia
NCI-H460 lung = test system: NCI-H460 lung
HS 578T breast = test system: HS 578T breast
HCT-116 colon = test system: HCT-116 colon
A498 renal = test system: A498 renal
OVCAR-8 ovarian = test system: OVCAR-8 ovarian
LOX IMVI melanoma = test system: LOX IMVI melanoma
RXF 393 renal = test system: RXF 393 renal
T-47D breast = test system: T-47D breast
OVCAR-3 ovarian = test system: OVCAR-3 ovarian
SF-295 CNS = test system: SF-295 CNS
HOP-62 NSCLC = test system: HOP-62 NSCLC
UACC-257 melanoma = test system: UACC-257 melanoma
HCT-15 colon = test system: HCT-15 colon
TK-10 renal = test system: TK-10 renal
ACHN renal = test system: ACHN renal
EKVX NSCLC = test system: EKVX NSCLC
SK-OV-3 ovarian = test system: SK-OV-3 ovarian
SF-539 CNS = test system: SF-539 CNS
HCC-2998 colon = test system: HCC-2998 colon
OVCAR-5 ovarian = test system: OVCAR-5 ovarian
MCF7 breast = test system: MCF7 breast
SNB-19 CNS = test system: SNB-19 CNS
UO-31 renal = test system: UO-31 renal
HOP-92 NSCLC = test system: HOP-92 NSCLC
K-562 leukemia = test system: K-562 leukemia
OVCAR-4 ovarian = test system: OVCAR-4 ovarian
786-0 renal = test system: 786-0 renal
NCI-H226 lung = test system: NCI-H226 lung
NCI/ADR-RES ovarian = test system: NCI/ADR-RES ovarian
HL-60(TB) leukemia = test system: HL-60(TB) leukemia

Question: Which TGI (KM12 colon) does the source give for `COc1ccc(NC(=S)N/N=C(\c2ccccc2)c2ccccn2)cc1` here?
Answer: The TGI was 15.9 µM.

Question: And the TGI (NCI-H522 lung)?
Answer: The TGI was 15.3 µM.

Question: What about the TGI (SN12C renal) of the same compound?
Answer: Its TGI is 7.24 µM.

Question: And the TGI (MDA-MB-231 breast)?
Answer: Its TGI is 14.4 µM.

Question: And the TGI (SK-MEL-28 melanoma)?
Answer: The TGI was 18.5 µM.

Question: What about the TGI (A549 NSCLC) of the same compound?
Answer: The TGI was 14.2 µM.

Question: What about the TGI (HT29 colon) of the same compound?
Answer: The TGI was 23.6 µM.

Question: What about the TGI (DU-145 prostate) of the same compound?
Answer: The TGI was 11.2 µM.

Question: What about the TGI (SW-620 colon) of the same compound?
Answer: Its TGI is 20.2 µM.

Question: What about the TGI (COLO 205 colon) of the same compound?
Answer: The TGI was 30.3 µM.

Question: What about the TGI (BT-549 breast) of the same compound?
Answer: The TGI was 20.2 µM.

Question: And the TGI (U251 CNS)?
Answer: The TGI was 27.1 µM.

Question: What about the TGI (PC-3 prostate) of the same compound?
Answer: The TGI was 17.6 µM.

Question: And the TGI (CAKI-1 renal)?
Answer: The TGI was 10.5 µM.

Question: And the TGI (SK-MEL-2 melanoma)?
Answer: Its TGI is 14.1 µM.

Question: What about the TGI (CCRF-CEM leukemia) of the same compound?
Answer: The TGI was > 40.1 µM.

Question: And the TGI (MALME-3M melanoma)?
Answer: Its TGI is 11 µM.

Question: And the TGI (IGROV1 ovarian)?
Answer: Its TGI is 17.2 µM.

Question: What about the TGI (NCI-H23 lung) of the same compound?
Answer: Its TGI is 16.4 µM.

Question: And the TGI (SK-MEL-5 melanoma)?
Answer: The TGI was 6.53 µM.

Question: What about the TGI (MDA-N) of the same compound?
Answer: The TGI was 16.2 µM.

Question: What about the TGI (RPMI-8226 leukemia) of the same compound?
Answer: Its TGI is > 20.6 µM.

Question: And the TGI (M14 melanoma)?
Answer: Its TGI is 2.61 µM.

Question: And the TGI (MDA-MB-435)?
Answer: Its TGI is 16.9 µM.

Question: And the TGI (SF-268 CNS)?
Answer: The TGI was 14.8 µM.

Question: What about the TGI (UACC-62 melanoma) of the same compound?
Answer: Its TGI is 10.2 µM.

Question: And the TGI (SR leukemia)?
Answer: Its TGI is 5.57 µM.

Question: What about the TGI (NCI-H460 lung) of the same compound?
Answer: The TGI was 6.47 µM.

Question: What about the TGI (HS 578T breast) of the same compound?
Answer: Its TGI is 56.8 µM.

Question: What about the TGI (HCT-116 colon) of the same compound?
Answer: Its TGI is 13.7 µM.

Question: What about the TGI (A498 renal) of the same compound?
Answer: The TGI was 16 µM.

Question: What about the TGI (OVCAR-8 ovarian) of the same compound?
Answer: The TGI was 11.7 µM.

Question: What about the TGI (LOX IMVI melanoma) of the same compound?
Answer: Its TGI is 18.4 µM.

Question: And the TGI (RXF 393 renal)?
Answer: The TGI was 15.7 µM.

Question: And the TGI (T-47D breast)?
Answer: The TGI was 13.6 µM.

Question: What about the TGI (OVCAR-3 ovarian) of the same compound?
Answer: The TGI was 13.2 µM.

Question: And the TGI (SF-295 CNS)?
Answer: Its TGI is 9.59 µM.

Question: What about the TGI (HOP-62 NSCLC) of the same compound?
Answer: Its TGI is 5.33 µM.

Question: What about the TGI (UACC-257 melanoma) of the same compound?
Answer: The TGI was 2.44 µM.

Question: What about the TGI (HCT-15 colon) of the same compound?
Answer: Its TGI is 15 µM.

Question: What about the TGI (TK-10 renal) of the same compound?
Answer: The TGI was 2.27 µM.

Question: What about the TGI (ACHN renal) of the same compound?
Answer: The TGI was 10.5 µM.

Question: And the TGI (EKVX NSCLC)?
Answer: The TGI was 2.65 µM.

Question: And the TGI (SK-OV-3 ovarian)?
Answer: Its TGI is 16 µM.

Question: And the TGI (SF-539 CNS)?
Answer: Its TGI is 3.03 µM.

Question: What about the TGI (HCC-2998 colon) of the same compound?
Answer: The TGI was 22.3 µM.

Question: What about the TGI (OVCAR-5 ovarian) of the same compound?
Answer: Its TGI is 6.5 µM.

Question: What about the TGI (MCF7 breast) of the same compound?
Answer: The TGI was 0.703 µM.

Question: And the TGI (SNB-19 CNS)?
Answer: The TGI was 18.5 µM.

Question: What about the TGI (UO-31 renal) of the same compound?
Answer: Its TGI is 8.73 µM.

Question: What about the TGI (HOP-92 NSCLC) of the same compound?
Answer: The TGI was 9.87 µM.

Question: What about the TGI (K-562 leukemia) of the same compound?
Answer: The TGI was 3.06 µM.

Question: And the TGI (OVCAR-4 ovarian)?
Answer: The TGI was 16.9 µM.

Question: What about the TGI (786-0 renal) of the same compound?
Answer: The TGI was 11.2 µM.

Question: And the TGI (NCI-H226 lung)?
Answer: Its TGI is 2.61 µM.

Question: And the TGI (NCI/ADR-RES ovarian)?
Answer: Its TGI is 23.8 µM.

Question: What about the TGI (HL-60(TB) leukemia) of the same compound?
Answer: Its TGI is 1.9 µM.
